According to patent publication EP2255813A1, “Derivatives of ursodeoxycholic acid for the treatment of diarrhoea” (The Royal College of Surgeons in Ireland, priority 2009, dated 2010):

Tested on: T84 cells
Assay: Cl^- secretion measured as short-circuit current (Isc) across T84 cell monolayers in Ussing chambers
Format: cell-based
Experimental: Materials and Methods: Cultured T84 epithelial cells were employed as a model of the colonic epithelium. T84 cells were grown as monolayers on filter supports. When grown in this way T84 cells retain many of the characteristics of native intestinal epithelium and are widely considered as being among the best reductionist models for analysing intestinal epithelial secretory responses. T84 cell monolayers were mounted in Ussing chambers, and voltage-clamped to zero potential difference. Under these conditions, transepithelial ion transport can be measured as changes in short-circuit current (Isc) and such changes in Isc across T84 cells have been established as wholly due to Cl^- ion secretion. […]

Compound	secretory responses to CCh (100µM and 500µM for 15 minutes before CCh (100µM) (Figure 7))	secretory responses to FSK (100µM and 500µM for 15 minutes before FSK (10µM) (Figure 7))	minimal effective concentration (Homo sapiens, responses to CCh, T84 cells (Figure 3B), read-out: concentration at which antisecretory effects are apparent) [µM]
6-methyl-UDCA [MUDCA]	inhibited secretory responses to both CCh and FSK	inhibited secretory responses to both CCh and FSK	–
C[C@H](CCC(=O)O)[C@H]1CC[C@H]2[C@@H]3[C@@H](O)C[C@@H]4C[C@H](O)CC[C@]4(C)[C@H]3CC[C@]12C [UDCA, ursodeoxycholic acid]	–	–	50
